Laboratory results published in patent publication US7390817B2, “Combinations of a vanilloid antagonist and an NSAID for the treatment of pain” (Glaxo Group Limited, priority 2002, dated 2008).

Tested on: FCA-induced mechanical hypersensitivity
Assay: Guinea Pig FCA Model (mechanical hyperalgesia, paw pressure)
Format: in vivo
Details: male Dunkin-Hartley guinea-pigs, FCA intraplantar left paw, oral dosing 24 hours later, reading 1 hour after drug administration; Compound A 1.5 mg/kg, Compound B 1 mg/kg
Procedure: 100 μl of 1 mg/ml FCA was injected intraplantar into the left paw of 6 groups of 6 male Dunkin-Hartley guinea-pigs (average weight 330 g) in order to induce inflammation and evoke a mechanical hypersensitivity (Ref. Stein, C., Millan, M. J., and Herz, A., Unilateral inflammation of the hind paw in rats as a model of prolonged noxious stimulation: alterations in behaviour and nociceptive thresholds, Pharmacol. Biochem. Behav., 31 (1988) 445-451). 24 hours later 1.5 mg/kg rofecoxib, 1 mg/kg N-(2-Bromophenyl)-N′-[((R)-1-(5-trifluoromethyl-2-pyridyl)pyrrolidin-3-yl)]urea and a combination of both was administered orally with the vehicle being 1% methylcellulose, the dosing volume being 2 ml/kg and dosing straight into the stomach. The methylcellulose was added gradually to the compound into the pestle and mortar and ground together. The mixtures were then sonnicated for 20 minutes. Behavioural readouts of mechanical hyperalgesia were obtained before FCA adminsitration (naive reading), after FCA but before drug administration (predose reading) and 1 hour after drug administration. […] The readout used was paw withdrawal in response to paw pressure (Ref. Randall L O, Selitto J J. (1957) A method for measurement of analgesic activity on inflammed tissue. Arch Int. Pharmacodyn 61, 409419.) and the end point was paw withdrawal. […]

| SMILES | % reversal of mechanical hypersensitivity [%] |
| --- | --- |
| CS(=O)(=O)c1ccc(C2=C(c3ccccc3)C(=O)OC2)cc1 [Compound A, rofecoxib] | 30.6 |
| O=C(Nc1ccccc1Br)N[C@@H]1CCN(c2ccc(C(F)(F)F)cn2)C1 [Compound B, N-(2-Bromophenyl)-N′-[((R)-1-(5-trifluoromethyl-2-pyridyl)pyrrolidin-3-yl)]urea] | 32.5 |
